± gives the expanded uncertainty stated by the source.
Experiments:
[1] = wn = mass fraction of the nth substance listed; conditions: Other PVT measurement
[2] = Crystal; visual observation

CCCCCCCCOC(=O)c1cccc(-c2cccc(C(=O)OCCCCCCCC)c2)c1 [dioctyl [1,1'-biphenyl]-3,3'-dicarboxylate] + O=C=O
[1]
Conditions | mass density [kg/m3]
294.95 K, 21200 kPa, Gas, w1 = 0.018 | 883 ± 27
295.55 K, 15610 kPa, Gas, w1 = 0.62 | 1089 ± 33
296.05 K, 6100 kPa, Fluid (supercritical or subcritical phases), w1 = 0.277 | 750 ± 23
298.55 K, 6480 kPa, Fluid (supercritical or subcritical phases), w1 = 0.277 | 734 ± 22
302.15 K, 7070 kPa, Fluid (supercritical or subcritical phases), w1 = 0.277 | 701 ± 21
304.15 K, 7450 kPa, Fluid (supercritical or subcritical phases), w1 = 0.277 | 682 ± 20
305.75 K, 23790 kPa, Gas, w1 = 0.018 | 856 ± 26
306.05 K, 16070 kPa, Gas, w1 = 0.62 | 1076 ± 32
312.65 K, 17750 kPa, Gas, w1 = 0.62 | 1052 ± 32
313.75 K, 126340 kPa, Gas, w1 = 0.496 | 1150 ± 35
318.65 K, 92850 kPa, Gas, w1 = 0.496 | 1121 ± 34
324.55 K, 104160 kPa, Gas, w1 = 0.092 | 1160 ± 35
324.65 K, 110450 kPa, Gas, w1 = 0.286 | 1131 ± 34
326.85 K, 147870 kPa, Gas, w1 = 0.131 | 1240 ± 37
328.15 K, 88980 kPa, Gas, w1 = 0.092 | 1124 ± 34
329.05 K, 27960 kPa, Gas, w1 = 0.018 | 804 ± 24
329.05 K, 90520 kPa, Gas, w1 = 0.286 | 1097 ± 33
329.05 K, 137580 kPa, Gas, w1 = 0.256 | 1150 ± 35
329.15 K, 121140 kPa, Gas, w1 = 0.388 | 1178 ± 35
329.35 K, 116110 kPa, Gas, w1 = 0.201 | 1141 ± 34
330.85 K, 105180 kPa, Gas, w1 = 0.388 | 1139 ± 34
330.85 K, 113860 kPa, Gas, w1 = 0.256 | 1125 ± 34
331.25 K, 106000 kPa, Gas, w1 = 0.131 | 1160 ± 35
332.25 K, 83070 kPa, Gas, w1 = 0.286 | 1083 ± 33
332.65 K, 20850 kPa, Gas, w1 = 0.62 | 1031 ± 31
333.45 K, 68350 kPa, Gas, w1 = 0.496 | 1075 ± 32
333.65 K, 93560 kPa, Gas, w1 = 0.201 | 1111 ± 33
340.55 K, 73300 kPa, Gas, w1 = 0.092 | 1062 ± 32
341.95 K, 70330 kPa, Gas, w1 = 0.286 | 1044 ± 31
344.15 K, 77780 kPa, Gas, w1 = 0.388 | 1077 ± 32
344.35 K, 77640 kPa, Gas, w1 = 0.256 | 1045 ± 31
345.15 K, 74290 kPa, Gas, w1 = 0.201 | 1048 ± 31
347.45 K, 60240 kPa, Gas, w1 = 0.496 | 1049 ± 31
348.95 K, 30510 kPa, Gas, w1 = 0.018 | 760 ± 23
350.05 K, 73950 kPa, Gas, w1 = 0.131 | 1054 ± 32
352.15 K, 66510 kPa, Gas, w1 = 0.092 | 1019 ± 31
352.95 K, 62980 kPa, Gas, w1 = 0.286 | 1010 ± 30
353.95 K, 24590 kPa, Gas, w1 = 0.62 | 1013 ± 30
353.95 K, 69580 kPa, Gas, w1 = 0.256 | 1015 ± 30
358.75 K, 65340 kPa, Gas, w1 = 0.201 | 1005 ± 30
360.85 K, 67620 kPa, Gas, w1 = 0.388 | 876 ± 26
363.25 K, 57970 kPa, Gas, w1 = 0.496 | 997 ± 30
365.65 K, 63340 kPa, Gas, w1 = 0.092 | 979 ± 29
365.85 K, 33480 kPa, Gas, w1 = 0.018 | 726 ± 22
366.35 K, 66790 kPa, Gas, w1 = 0.131 | 1002 ± 30
366.65 K, 59240 kPa, Gas, w1 = 0.286 | 976 ± 29
369.85 K, 63030 kPa, Gas, w1 = 0.256 | 969 ± 29
370.45 K, 27170 kPa, Gas, w1 = 0.62 | 997 ± 30
372.25 K, 61790 kPa, Gas, w1 = 0.201 | 968 ± 29

O=C(OCCC(F)(F)C(F)(F)C(F)(F)C(F)(F)C(F)(F)C(F)(F)F)c1cccc(-c2cccc(C(=O)OCCC(F)(F)C(F)(F)C(F)(F)C(F)(F)C(F)(F)C(F)(F)F)c2)c1
Conditions | Normal melting temperature [°C]
[2] | 72.00 ± 1

CCCCCCCCOC(=O)c1cccc(-c2cccc(C(=O)OCCCCCCCC)c2)c1 [dioctyl [1,1'-biphenyl]-3,3'-dicarboxylate]
Conditions | Normal melting temperature [°C]
[2] | 29.00 ± 1

O=C(OCCC(F)(F)C(F)(F)C(F)(F)C(F)(F)C(F)(F)C(F)(F)F)c1ccccc1-c1ccccc1C(=O)OCCC(F)(F)C(F)(F)C(F)(F)C(F)(F)C(F)(F)C(F)(F)F + O=C=O
[1], Fluid (supercritical or subcritical phases)
Conditions | mass density [kg/m3]
294.65 K, 5000 kPa, w1 = 0.652 | 892 ± 27
294.65 K, 5620 kPa, w1 = 0.36 | 681 ± 24
294.85 K, 5930 kPa, w1 = 0.063 | 606 ± 19
295.15 K, 6040 kPa, w1 = 0.13 | 668 ± 20
295.55 K, 6170 kPa, w1 = 0.021 | 663 ± 20
297.35 K, 6380 kPa, w1 = 0.13 | 688 ± 21
297.45 K, 6110 kPa, w1 = 0.36 | 690 ± 23
297.75 K, 5170 kPa, w1 = 0.652 | 896 ± 27
298.65 K, 5930 kPa, w1 = 0.515 | 968 ± 29
298.75 K, 6310 kPa, w1 = 0.288 | 798 ± 26
298.85 K, 6590 kPa, w1 = 0.063 | 640 ± 20
299.15 K, 6690 kPa, w1 = 0.021 | 643 ± 19
303.05 K, 7110 kPa, w1 = 0.13 | 662 ± 20
303.35 K, 7210 kPa, w1 = 0.063 | 617 ± 19
303.35 K, 7380 kPa, w1 = 0.021 | 601 ± 18
304.65 K, 7210 kPa, w1 = 0.288 | 781 ± 23
307.95 K, 7210 kPa, w1 = 0.515 | 949 ± 28
309.35 K, 8200 kPa, w1 = 0.021 | 558 ± 17
309.75 K, 7970 kPa, w1 = 0.36 | 739 ± 22
309.95 K, 8030 kPa, w1 = 0.063 | 579 ± 17
309.95 K, 8070 kPa, w1 = 0.288 | 771 ± 22
311.95 K, 8580 kPa, w1 = 0.13 | 630 ± 19
314.35 K, 7140 kPa, w1 = 0.652 | 966 ± 29
317.85 K, 8860 kPa, w1 = 0.515 | 929 ± 28
318.85 K, 9510 kPa, w1 = 0.288 | 750 ± 23
320.05 K, 10210 kPa, w1 = 0.36 | 724 ± 22
321.05 K, 10870 kPa, w1 = 0.202 | 594 ± 18
323.85 K, 11580 kPa, w1 = 0.13 | 613 ± 18
327.05 K, 11550 kPa, w1 = 0.021 | 518 ± 16
330.25 K, 13000 kPa, w1 = 0.063 | 561 ± 17
331.85 K, 12530 kPa, w1 = 0.36 | 712 ± 21
332.75 K, 12890 kPa, w1 = 0.288 | 728 ± 22
333.95 K, 9800 kPa, w1 = 0.652 | 940 ± 28
334.55 K, 12170 kPa, w1 = 0.515 | 899 ± 27
336.45 K, 14580 kPa, w1 = 0.202 | 578 ± 17
341.45 K, 15270 kPa, w1 = 0.36 | 701 ± 21
346.35 K, 16510 kPa, w1 = 0.13 | 581 ± 17
349.25 K, 15310 kPa, w1 = 0.021 | 490 ± 15
349.95 K, 17000 kPa, w1 = 0.063 | 536 ± 16
350.65 K, 15520 kPa, w1 = 0.515 | 870 ± 26
352.75 K, 17100 kPa, w1 = 0.288 | 697 ± 21
353.75 K, 12800 kPa, w1 = 0.652 | 918 ± 28
354.55 K, 18170 kPa, w1 = 0.202 | 565 ± 17
354.95 K, 17650 kPa, w1 = 0.36 | 681 ± 20
367.35 K, 20380 kPa, w1 = 0.13 | 553 ± 17
368.25 K, 17510 kPa, w1 = 0.021 | 458 ± 14
368.45 K, 18830 kPa, w1 = 0.515 | 840 ± 25
369.05 K, 20170 kPa, w1 = 0.288 | 675 ± 27
369.25 K, 19820 kPa, w1 = 0.36 | 659 ± 20
370.45 K, 15210 kPa, w1 = 0.652 | 900 ± 27
371.85 K, 20310 kPa, w1 = 0.063 | 503 ± 15
371.85 K, 21240 kPa, w1 = 0.202 | 542 ± 16

— the NIST ThermoML archive (doi:10.1016/j.fluid.2005.09.019)
